According to patent publication US6534652B2, “Intermediates for the preparation of substituted 1,2,3,4-tetrahydronaphthalene derivatives” (AstraZeneca AB, priority 1997, dated 2003):

Compound	melting point
CCCCOc1ccc(C(=O)N[C@@H]2CCc3c(O)ccc(N4CCN(C)CC4)c3C2)cc1 [Example 11, (R)-N-[5-Hydroxy-8-(4-methylpiperazin-1-yl)-1,2,3,4-tetrahydro-2-naphthyl]-4-butoxybenzamide]	125 °C (dec.)
O=C(N[C@@H]1CCc2c(Br)ccc(N3CCNCC3)c2C1)c1ccc(N2CCOCC2)cc1 [Example 17, (R)-N-[5-Bromo-8-(piperazin-1-yl)-1,2,3,4-tetrahydro-2-naphthyl]-4-morpholinobenzamide]	228 to 229 °C
CN1CCN(c2ccc(Br)c3c2C[C@H](NC(=O)c2ccc(N4CCOCC4)cc2)CC3)CC1 [Example 20, (R)-N-[5-Bromo-8-(4-methylpiperazin-1-yl)-1,2,3,4-tetrahydro-2-naphthyl]-4-morpholinobenzamide]	245 to 246 °C
COc1ccc(N2CCN(C)CC2)c2c1CC[C@@H](NC(=O)c1ccc(N3CCOCC3)cc1)C2 [Example 25, (R)-N-[5-Methoxy-8-(4-methylpiperazin-1-yl)-1,2,3,4-tetrahydro-2-naphthyl]-4-morpholinobenzamide]	237 to 238 °C
CN1CCN(c2ccc(O)c3c2C[C@H](NC(=O)c2ccc(C#N)cc2)CC3)CC1 [Example 26, (R)-N-[5-Hydroxy-8-(4-methylpiperazin-1-yl)-1,2,3,4-tetrahydro-2-naphthyl]-4-cyanobenzamide]	144 °C
COc1ccc(N2CCN(C)CC2)c2c1CC[C@@H](NC(=O)c1ccc(C(=O)N3CCOCC3)cc1)C2 [Example 27, (R)-N-[5-Methoxy-8-(4-methylpiperazin-1-yl)-1,2,3,4-tetrahydro-2-naphthyl]-4-morpholinocarbonylbenzamide]	209 to 210 °C
CN1CCN(c2ccc(Br)c3c2C[C@H](NC(=O)c2ccc(C(=O)N4CCOCC4)cc2)CC3)CC1 [Example 28, (R)-N-[5-Bromo-8-(4-methylpiperazin-1-yl)-1,2,3,4-tetrahydro-2-naphthyl]-4-morpholinocarbonylbenzamide]	228 to 230 °C
COc1ccc(C2CCN(C)CC2)c2c1CC[C@@H](NC(=O)c1ccc(N3CCOCC3)cc1)C2 [Example 38, (R)-N-[5-Methoxy-8-(1-methylpiperidin-4-yl)-1,2,3,4-tetrahydro-2-naphthyl]-4-morpholinobenzamide]	237 to 242 °C (dec.)
CCc1ccc(N2CCN(C)CC2)c2c1CC[C@@H](NC(=O)c1ccc(N3CCOCC3)cc1)C2 [Example 42, (R)-N-[5-Ethyl-8-(4-methylpiperazin-1-yl)-1,2,3,4-tetrahydro-2-naphthyl]-4-morpholinobenzamide]	234 °C (dec.)
CN1CCN(c2ccc(OC(F)F)c3c2C[C@H](NC(=O)c2ccc(N4CCOCC4)cc2)CC3)CC1 [Example 46, (R)-N-[5-Difluoromethoxy-8-(4-methylpiperazin-1-yl)-1,2,3,4-tetrahydro-2-naphthyl]-4-morpholinobenzamide]	222 to 223 °C
CN1CCN(c2ccc(Br)c3c2C[C@H](NC(=O)c2ccc(C(F)(F)F)cc2)CC3)CC1 [Example 48, (R)-N-[5-Bromo-8-(4-methylpiperazin-1-yl)-1,2,3,4-tetrahydro-2-naphthyl]-4-trifluoromethylbenzamide]	229 to 230 °C
COCc1ccc(N2CCN(C)CC2)c2c1CC[C@@H](NC(=O)c1ccc(N3CCOCC3)cc1)C2 [Example 51, (R)-N-[5-Methoxymethyl-8-(4-methylpiperazin-1-yl)-1,2,3,4-tetrahydro-2-naphthyl]-4-morpholinobenzamide]	200 °C (dec.)
CN1CCN(c2ccc(O)c3c2C[C@H](NC(=O)c2ccc(N4CCOCC4)cc2)CC3)CC1 [Example 60, (R)-N-[5-Hydroxy-8-(4-methylpiperazin-1-yl)-1,2,3,4-tetrahydro-2-naphthyl]-4-morpholinobenzamide]	84 to 88 °C
Cc1ccc(N2CCNCC2)c2c1CC[C@@H](NC(=O)c1ccc(N3CCOCC3)cc1)C2 [Example 67, (R)-N-[5-Methyl-8-(piperazin-1-yl)-1,2,3,4-tetrahydro-2-naphthyl]-4-morpholinobenzamide]	207 to 210 °C
Cc1ccc(N2CCN(C)CC2)c2c1CC[C@@H](NC(=O)c1ccc(Cl)cc1)C2 [Example 68, (R)-N-[5-Methyl-8-(4-methylpiperazin-1-yl)-1,2,3,4-tetrahydro-2-naphthyl]-4-chlorobenzamide]	210 to 212 °C
